Tested on: TDI-induced dermatitis in BALB/c mice
Assay: toluene-2,4-diisocyanate (TDI) induced dermatitis model, topical treatment of the ear
Format: in vivo, female BALB/c mice
Conditions: for inhibition of various parameters: standard reference compounds, dose not stated
Description: The sensitization protocol was as per W. Baumer et al., J Pharm Pharmacol., 55(8):1107-14 (2003). The abdominal region was shaved and depilated using Veet. Subsequently, the horny layers were stripped 10 times with adhesive tape. For active sensitization, 100 μl of 5% TDI was applied to the stripped skin for 3 consecutive days.
Prescreening was performed 21 days later. In brief, the sensitized mice were challenged with an application of 10 μl of 0.5% TDI on both the inner and outer surface of the left ear, the right ear served as control in each mouse. Ear thickness was measured with a cutimeter (Model7309, Mitutoyo Japan) prior to challenge and 24 hours after challenge. […] Animals were rested for 7 days after prescreening, to allow for the ear thickness to return to normal.
Five groups (A-E) were studied.
On day 28, test compounds. GRC-CPD-A (0.3, 3 and 10%) were prepared using DMSO and acetone in the ratio of 1:9 as solvents. 20 μl (10 μl on each side of the ear) of the formulation was applied to the left ear of each mouse as per the study design 6 hours prior to challenge with TDI. 20 μl of TDI was applied to both inner and outer surface of the left ear of each mouse. The right ear served as control and received an application of 10 μl of acetone on each side. 24 hours post TDI challenge ear thickness was determined and ears were collected for histology and eosinophil peroxidase (EPO) determination. Ear sections were processed for histology and stained with hematoxylin-eosin (HE) and lesions were scored as follows: 0=no cell infiltration or edema, 1-4-granulocyte infiltration/oedema depending on severity. A combined congo-red-toluidine blue staining was also carried out to identify eosinophils which were then quantified per 12 high power fields (hpf). EPO levels in ear sections were determined by standard […] assay using […] as substrate.
All data were expressed as mean±SEM. All groups were subjected to one-way ANOVA and means were compared using Dunnett's post hoc test using GraphPad prism software.

[1] = conclusion, in a dose dependent manner (0.3, 3 and 10% topical)

| SMILES | inhibition of various parameters | EPO levels [1] | ear swelling (oedema and eosinophil infiltration) [1] | inhibition of ear swelling (topical application of 10%, 6 hours prior to TDI challenge, ear thickness 24 hours post TDI challenge, FIG. 1) | histological scores (topical application of 10%, HE-stained ear sections, lesion score 0-4, 24 hours post TDI challenge, FIG. 2) | EPO levels in the ear (topical application of 10%, eosinophil peroxidase in ear sections, 24 hours post TDI challenge, FIG. 4) | eosinophil infiltration (topical application of 10%, eosinophils per 12 hpf in ear sections, 24 hours post TDI challenge, FIG. 3) |
| --- | --- | --- | --- | --- | --- | --- | --- |
| C=CC[C@@H]1/C=C(\C)C[C@H](C)C[C@H](OC)[C@H]2O[C@@](O)(C(=O)C(=O)N3CCCC[C@H]3C(=O)O[C@H](/C(C)=C/[C@@H]3CC[C@@H](O)[C@H](OC)C3)[C@H](C)[C@@H](O)CC1=O)[C@H](C)C[C@@H]2OC [tacrolimus, reference compound] | significant inhibition | – | – | – | – | – | – |
| C[C@]12CCC(=O)C=C1CC[C@@H]1[C@@H]2[C@@H](O)C[C@@]2(C)[C@H]1CC[C@]2(O)C(=O)CO [hydrocortisone, reference compound] | significant inhibition | – | – | – | – | – | – |
| CC(C)(C)NC(=O)c1nn(-c2ccc(F)cc2F)c2c1[C@H]1CC[C@@H]2C1 [GRC-CPD-A, (1R,7S)—N5-(tert-butyl)-3-(2,4-difluorophenyl)-3,4-diazatricylco[5.2.1.0^2,6]deca-2(6),4-diene-5-carboxamide] | – | effectively inhibits | effectively inhibits | significant (p<0.001) dose-dependent inhibition | improved | inhibited | inhibited |
